Data from ChEMBL document CHEMBL3272045, “4-amino-6-(trichloroethenyl)-1,3-benzenedisulfonamide, a new, potent fasciolicide” (J Med Chem, 1977).

Columns and labels:
Fasciola hepatica [1] = assay: Fasciolicidal activity against Fasciola hepatica metacercariae infected in rat assessed as elimination of liver flukes at 3.1 mg/kg, po administered as single dose; type: functional
Fasciola hepatica [2] = assay: Fasciolicidal activity against Fasciola hepatica metacercariae infected in sheep assessed as elimination of liver flukes at 15 mg/kg, po measured 6 weeks after infection; type: functional; settings: 1008 h
Fasciola hepatica [3] = assay: Fasciolicidal activity against Fasciola hepatica metacercariae infected in calves assessed as elimination of liver flukes at 15 mg/kg, po measured 8 weeks after infection; type: functional; settings: 1344 h
Fasciola hepatica [4] = assay: Fasciolicidal activity against Fasciola hepatica metacercariae infected in sheep assessed as elimination of liver flukes at 2.5 mg/kg, po measured 16 weeks after infection; type: functional; settings: 2688 h
Ovis aries = assay: Toxicity in Fasciola hepatica metacercariae infected in sheep assessed as induction of gross toxic reactions at 200 to 400 mg/kg, po administered as single dose; type: organism-based; design: dose 200-400 mg/kg, route oral; settings: in vivo
Fasciola hepatica [5] = assay: Fasciolicidal activity against Fasciola hepatica metacercariae infected in po dosed rat assessed as elimination of liver flukes administered as single dose; type: functional; settings: read-out: MED

| SMILES | inhibition in vivo at 3.1 mg/kg (Fasciola hepatica [1]) [%] | inhibition in vivo at 15 mg/kg (Fasciola hepatica [2]) [%] | inhibition in vivo at 15 mg/kg (Fasciola hepatica [3]) [%] | inhibition in vivo at 2.5 mg/kg (Fasciola hepatica [4]) [%] | Activity (Ovis aries) | minimal effective dose (Fasciola hepatica [5]) [mg/kg] |
| --- | --- | --- | --- | --- | --- | --- |
| Nc1cc(C(Cl)=C(Cl)Cl)c(S(N)(=O)=O)cc1S(N)(=O)=O [CLORSULON] | > 90 | > 90 | > 90 | 90 | Non-toxic |  |
| O=C(Nc1ccc(Oc2ccc(Cl)cc2)c(Cl)c1)c1cc(I)cc(I)c1O [RAFOXANIDE] |  |  |  |  |  | 3.1 |
